Where “and” joins values, the source holds several entries; their conditions need not be identical. Equal values may be shown once. Read-outs that look alike come from different tables or passages of the source.
Assays:
[1] = tested on: Bcl-2 and Bax in U-87MG cells; assay: Western blotting of Bcl-2 and Bax, U-87MG cells; assay type: cell-based, human; details: 60 μM and 120μM, 24 hr
Experimental: The cellular proteins were extracted from 10^7 cultured cells after drug treatments using RIPA lysis buffer (Promega, USA). Western blotting analysis was performed to determine cellular responses targeting apoptosis-related proteins including Bcl-2 and Bax. Briefly, C6 and U-87MG cells were treated with different doses of DMAMCL for 24 hr at 37°C. Then cells were washed twice with cold phosphate buffered saline (PBS) and lysed in RIPA buffer containing 1mmol/l PMSF (Pheylmethylsulfonyl fluoride, Sigma, USA) on ice for 30 min. The total proteins of cells were obtained by centrifugation at 12000 rpm for 15 min. Next, the lysate proteins were resolved by SDS-PAGE and transferred to the Immobilon-P membranes (Millipore, Billerica, MA, USA). The membranes were blocked by 5% nonfat milk in Tris-buffered saline with 0.1% Tween 20 (TBST) and immunoblotted with the antibodies against β-actin, Bcl-2 and Bax (Cellsignaling Technology, USA) at 4°C overnight. Then membranes were incubated with HRP-conjugated secondary antibody for 1.5 hr at room temperature. The targeting antibodies were stained with enhanced chemiluminescent reagents (Millipore, Billerica, MA, USA) and visualized by ChemiScope 3600 Mini systerm (Clinx Science Instruments, China).

U-87MG cells [2] = assay: Apoptosis by Annexin V/PI flow cytometry, U-87MG; assay type: cell-based, human
[3] = Locomotor activity (neurological effects); assay type: in vivo, Wistar rats
Experimental: Locomotor activity was used to assess neurological effects of DMAMCL. Wistar rats (150–170 g) were divided into the following 3 groups (10 rats /group): 1) vehicle control, 2) DMAMCL at 100 mg/kg, and 3) DMAMCL at 300 mg/kg. DMAMCL was administered orally once a day for 21 days. Rat locomotor activities were monitored on days 1, 10, 21 and 28 using Aninal Behavioral Analysis System (AniLab Software and Instruments Co, Ltd, China). Briefly, rats were gently placed in the locomotor activity boxes equipped with infrared photobeams and individual total distance (cm) of rat running was recorded during a test period of 60 min. The test apparatus was cleaned to eliminate odors for the next test after each animal was tested.

[4] = Biodistribution of DMAMCL in rats after a single oral dose (UPLC-MS/MS); assay type: in vivo, Wistar rats; set-up: Mean concentration in brain: unit not given here; details: single oral dose 100 mg/kg
Experimental: All rats had free access to food and water. Before drug administration, rats were fasted for 12 h and water was freely available.
Aqueous DMAMCL solutions were administered orally (100 mg/kg) (n = 6 rats per group). Blood and tissue samples from rats were collected at the setting time and analyzed on an ultraperformance liquid chromatography-mass spectrometry (UPLC-MS/MS) system (Waters/Micromass, Milford, MA) using noncompartmental analyses. All the biological specimens were detected at once or stored at -80°C for detection.

C6 cells = assay: Cell proliferation MTT assay, C6; assay type: cell-based; details: Rattus norvegicus, 72 h
Experimental: (§1) C6 and U-87MG cell lines were obtained from the American Type Culture Collection (ATCC) and cultured in our laboratory. Rat C6 glioma cells were cultured in F12K nutrient medium (Gibco, Grand Island, […]) supplemented with 15% horse serum (Auckland, NZ), 2.5% fetal bovine serum (FBS), 100 U/mL penicillin, and […] streptomycin (Gibco, Paisley, Scotland, UK). Human U-87MG cells were cultured in minimum essential medium (MEM) supplemented with 10% FBS, 1% nonessential amino acids, 100 U/mL penicillin, and […] streptomycin. Cells were cultured under a humidified atmosphere containing 5% CO2 at 37°C, and medium was changed every 1 to 2 days.
(§2) Tumor cells were seeded in 96-well plates at a density of 3500 cells/well. After 24 h in culture, cells were exposed to different concentrations of DMAMCL or medium alone (control) for 72 h. Cell viability was determined by MTT assays. Briefly, MTT regent (0.5 mg/mL) was added to wells, and cells were incubated for 4 h at 37°C. After removing the supernatant, 200 μL of dimethyl sulfoxide (DMSO) (Fluka, Switzerland) was added to dissolve formazan crystals. The absorbance at 570 nm was measured by a microplate reader (Thermo Labsystems, Helsinki, Finland). Control absorbance was taken as 100%. The absorbance of DMAMCL-treated cells was taken as percentage survival. […]

intracerebral C6 glioma = assay: Survival time analysis in C6 intracerebral glioma rats; assay type: in vivo, Wistar rats; details: for Survival (# of rats) End: 63 days, n = 10; for Survival: at 63 days; for Mean survival / Median survival: observation 63 days
Experimental: C6 tumors were maintained as subcutaneous tumors in rats.
The survival time analyses were performed in C6 intracerebral glioma rats. […] Animals were monitored daily for signs of mortality and weight. Rats were sacrificed when a loss of mobility, lethargy, hemorrhaging around the eyes, or a hunched posture was observed as previously described. The observation time was terminated when all the vehicle rats died. Then the other rats were euthanized by CO2 asphyxiation.

U-87MG cells [5] = assay: Cell proliferation MTT assay, U-87MG; assay type: cell-based; details: Homo sapiens, 72 h
Experimental: as §1, §2

[6] = DMAMCL 25 mg/kg daily for 21 days
[7] = DMAMCL 50 mg/kg daily for 21 days
[8] = DMAMCL 100 mg/kg daily for 21 days

CC1=C2CC[C@@](C)(O)[C@@H]2[C@H]2OC(=O)[C@@H](CN(C)C)[C@@H]2CC1 [DMAMCL, dimethylaminomicheliolide]
Bax expression (Western blot) [1]: up-regulated Bax expression
Bcl-2 expression (Western blot) [1]: down-regulated Bcl-2 expression
Surviving cells (U-87MG cells [2]; 240 μM): few surviving
Early and late apoptosis and necrosis (U-87MG cells [2]; 24 hr post-treatment, dose-dependent): significantly increased early and late apoptosis and necrosis
Locomotor activity ([3]; 100mg/kg orally once a day for 21 days, observation period): as active as vehicle group
Locomotor activity, total distance ([3]; 300mg/kg orally once a day, following days): still less active than vehicle group, but without significant statistical difference
Locomotor activity, total distance ([3]; 300mg/kg orally, first day): decreased compared with vehicle group
Locomotor activity, total distance ([3]; 300mg/kg, within one week of DMAMCL withdrawal): no significant changes were observed
Kp at 0.083 h ([4]; Wistar, rat, brain, rats, 0.083h, read-out: C brain / C plasma): 1.45
Kp at 0.5 h ([4]; Wistar, rat, brain, rats, 0.5h, read-out: C brain / C plasma): 1.84
Kp at 3 h ([4]; Wistar, rat, brain, rats, 3h, read-out: C brain / C plasma): 1.91
concentration at 3 h ([4]; Wistar, rat, brain, read-out: Concentration in rat brain): 4910 ± 869 ng/mL
Tmax ([4]; Wistar, rat, brain, read-out: Time of peak concentration in rat brain): 30 min
concentration at 3 h ([4]; Wistar, rat, plasma, read-out: Concentration in plasma): 2570 ± 968 ng/mL
Concentration in brain compared with plasma ([4]; rats): higher in the brain than in plasma
Concentration in tissues compared with plasma ([4]; rats): dramatically higher in almost all tissues than in plasma
Mean concentration in brain ([4]; rats, 0.083h): 6360
Mean concentration in plasma ([4]; rats, 0.083h): 4373 µg/mL
Mean concentration in brain ([4]; rats, 0.5h): 18970
Mean concentration in plasma ([4]; rats, 0.5h): 10310 µg/mL
Mean concentration in brain ([4]; rats, 3h): 4913
Mean concentration in plasma ([4]; rats, 3h): 2567 µg/mL
Peak concentration in rat brain ([4]; 0.5 hours after administration): 18970 ± 9603 ng/mL
IC50 (C6 cells; read-out: IC50): 27.2 ± 1.89 µM
IC50 (C6 cells; read-out: x0 (midpoint of logistic fit, Fig 3A) (converted)): 27.2 ± 1.89 µM
Median survival of deceased animals (intracerebral C6 glioma; [6]): 28 days
Time of death End (intracerebral C6 glioma; [6]): 42 days
Time of death Start (intracerebral C6 glioma; [6]): 20 days
Survival (# of rats) End (intracerebral C6 glioma; [6]): 7 # of rats
Survival (intracerebral C6 glioma; [6]): 70% and 70 ^** %
Mean survival (intracerebral C6 glioma; [6]): 53.1 ± 16.8 days
Median survival (intracerebral C6 glioma; [6]): 63 days
Median survival of deceased animals (intracerebral C6 glioma; [7]): 25 days
Time of death End (intracerebral C6 glioma; [7]): 25 days
Time of death Start (intracerebral C6 glioma; [7]): 25 days
Survival (# of rats) End (intracerebral C6 glioma; [7]): 9 # of rats
Survival (intracerebral C6 glioma; [7]): 90% and 90 ^*** %
Mean survival (intracerebral C6 glioma; [7]): 59.2 ± 12 days
Median survival (intracerebral C6 glioma; [7]): 63 days
Median survival of deceased animals (intracerebral C6 glioma; [8]): 41 days
Time of death End (intracerebral C6 glioma; [8]): 41 days
Time of death Start (intracerebral C6 glioma; [8]): 41 days
Survival (# of rats) End (intracerebral C6 glioma; [8]): 9 # of rats
Survival (intracerebral C6 glioma; [8]): 90% and 90 ^*** %
Mean survival (intracerebral C6 glioma; [8]): 60.8 ± 7 days
Median survival (intracerebral C6 glioma; [8]): 63 days
Survival longer than vehicle animals (intracerebral C6 glioma; DMAMCL-treated rats): ~ 30 days
IC50 (U-87MG cells [5]; read-out: IC50): 20.6 ± 1.61 µM
IC50 (U-87MG cells [5]; read-out: x0 (midpoint of logistic fit, Fig 3B) (converted)): 20.6 ± 1.6 µM
